Values of other authors as cited in patent US11447440B2, “Treprostinil monohydrate crystals and methods for preparation thereof” (CHIROGATE INTERNATIONAL INC., priority 2020, dated 2022).
Read-outs that look alike come from different tables or passages of the source.

Settings: for Treprostinil dimer formation on standing: stability tests

Compound	Treprostinil dimer formation (accelerated stability tests at 25° C., 30° C. and 40° C. for 6 months (Lot No. 01M07033))	stability in comparison with the anhydrous Treprostinil crystal (storage at room temperature over a long period of time)	Treprostinil dimer formation on standing (at 5° C.)	Treprostinil dimer formation on standing (at higher temperature (than 25° C.))	Treprostinil dimer formation on standing (standing at 25° C.)
CCCCC[C@H](O)CC[C@@H]1[C@H]2Cc3c(cccc3OCC(=O)O)C[C@H]2C[C@H]1O.O [Treprostinil monohydrate crystal]	almost negligible	more stable	–	–	–
CCCCC[C@H](O)CC[C@@H]1[C@H]2Cc3cccc(OCC(=O)O)c3C[C@H]2C[C@H]1O [anhydrous Treprostinil]	–	–	negligible	increased	continuing to form
